From patent US20230158022A1, “METHODS OF USING MYT1 INHIBITORS” (Repare Therapeutics Inc., priority 2020, published 2023)

Assays:
[1] = target: T1, recombinant human Myt1 (full length PKMYT1) (Homo sapiens, UniProt Q99640); assay: Myt1 enzymatic assay (ADP-Glo kinase assay, ATP hydrolysis)
T1 sequence (Q99640 1-499): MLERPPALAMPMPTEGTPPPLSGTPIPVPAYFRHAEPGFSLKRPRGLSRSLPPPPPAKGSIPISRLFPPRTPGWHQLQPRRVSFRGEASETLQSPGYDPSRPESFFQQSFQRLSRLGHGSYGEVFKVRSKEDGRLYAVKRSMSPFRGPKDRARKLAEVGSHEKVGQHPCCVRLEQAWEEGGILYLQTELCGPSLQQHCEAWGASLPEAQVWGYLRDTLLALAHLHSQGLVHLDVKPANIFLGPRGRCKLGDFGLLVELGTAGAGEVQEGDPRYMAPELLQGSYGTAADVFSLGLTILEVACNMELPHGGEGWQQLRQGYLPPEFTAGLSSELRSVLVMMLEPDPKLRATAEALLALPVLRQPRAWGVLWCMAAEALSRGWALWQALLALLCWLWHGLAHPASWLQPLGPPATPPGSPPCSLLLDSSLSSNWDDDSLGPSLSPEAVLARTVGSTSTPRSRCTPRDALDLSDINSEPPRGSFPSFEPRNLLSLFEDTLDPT
Description: Detection of Myt1 kinase activity utilized a recombinant human Myt1 kinase assay measuring the hydrolysis of ATP using a commercially available ADP-Glo Assay (ADP-Glo™ Kinase Assay from Promega, 10 000 assays, #V9102). […] After this, 5 μL of compounds (diluted in reaction buffer to 0.5% DMSO) was added to the microplate and the plate was spun briefly and incubated at 22° C. for 15 minutes. […] Luminescence was read using the Envision (250 ms integration). The IC50 and the % max inhibition were calculated for each inhibitor compound tested.

[2] = test system: RPE1-hTERT Cas9 TP53−/− parental (WT) and CCNE1-overexpressing clones; assay: Dose-response proliferation assay (IncuCyte confluency), RPE1-hTERT parental vs CCNE1-overexpressing clones; format: cell-based; conditions: dose titration, FIG. 3C
Description: For dose-response proliferation assays using RPE1-hTERT and FT282-hTERT cell lines, cells were seeded in 96-well plates and dosed with serially diluted Myt1 inhibitor. Cells were imaged once per day using the IncuCyte S3 microscope and percent well confluency was calculated over time. Once cells reached four population doublings the experiment was ended and IC50 curves were plotted for the final time point. Percentage confluency was calculated relative to the cell confluency in the untreated wells.

Compound	IC50 [1] [nM]	sensitivity (cell viability) of CCNE1-overexpressing cells compared with corresponding WT cells [2]
Cc1ccc(O)cc1-n1c(N)c(C(N)=O)c2nc(Cl)ccc21 [Compound 4]	922	–
Cc1ccc(O)c(C)c1-n1c(N)c(C(N)=O)c2cc(Cl)cnc21 (single isomer, unassigned) [Compound 133, S-2-amino-5-chloro-1-(3-hydroxy-2,6-dimethyl-phenyl)pyrrolo[2,3-b]pyridine-3-carboxamide]	–	more sensitive
